Data published in BindingDB's records for doi:10.1124/jpet.104.077321 (I.G.B.M.C., 2005).
pKi: −log10 of the molar value. Where a SMILES comes first, the peptide text is derived from it.

Target: Delta-type opioid receptor (Homo sapiens, UniProt P41143)
Sequence (P41143 whole entry): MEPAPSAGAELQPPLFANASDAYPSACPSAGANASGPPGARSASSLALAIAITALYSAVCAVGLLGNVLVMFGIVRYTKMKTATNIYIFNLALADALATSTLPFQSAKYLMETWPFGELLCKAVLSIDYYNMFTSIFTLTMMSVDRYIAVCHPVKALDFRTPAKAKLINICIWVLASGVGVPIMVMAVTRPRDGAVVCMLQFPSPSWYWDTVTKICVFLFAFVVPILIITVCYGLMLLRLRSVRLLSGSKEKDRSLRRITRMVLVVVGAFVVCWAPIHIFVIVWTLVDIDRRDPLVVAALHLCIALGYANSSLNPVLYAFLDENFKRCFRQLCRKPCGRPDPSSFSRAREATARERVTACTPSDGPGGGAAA

SMILES | pKi
Cc1cc(O)cc(C)c1C[C@@H](C(=O)N1Cc2ccccc2C[C@H]1C(N)=O)N(C)C | 8.60
Cc1cc(O)cc(C)c1C[C@H](N)C(=O)N1Cc2ccccc2C[C@H]1C(=O)O [(S)-2-((S)-2-amino-3-(4-hydroxy-2,6-dimethylphenyl)propanoyl)-1,2,3,4-tetrahydroisoquinoline-3-carboxylic acid] (HELM PEPTIDE1{[Cc1cc(O)cc(C)c1C[C@H](N)C(=O)[*:2]].[Tic]}$$$$V2.0) | 7.88
Cc1cc(O)cc(C)c1C[C@H](N)C(=O)N1Cc2ccccc2C[C@H]1C(N)=O [H-Dmt-Tic-NH2] (HELM PEPTIDE1{[Cc1cc(O)cc(C)c1C[C@H](N)C(=O)[*:2]].[Tic].[am]}$$$$V2.0) | 8.03
CCO[C@@]12Cc3c([nH]c4ccccc34)[C@]3(C)Oc4c(O)ccc5c4C31CCN(CC1CC1)C2C5 (stereo partly specified) [HS378] | 9.40
C=CCN1CCC23c4c5ccc(O)c4OC2c2[nH]c4ccccc4c2C[C@@]3(OCC)C1C5 (stereo partly specified) [HS414] | 8.68
CCO[C@@]12Cc3c([nH]c4ccccc34)C3Oc4c(O)ccc5c4C31CCN(CC1CC1)C2C5 (stereo partly specified) [HS464] | 9.96
CCO[C@@]12Cc3c(oc4ccccc34)C3Oc4c(O)ccc5c4C31CCN(CC1CC1)C2C5 (stereo partly specified) [HS510A] | 9.92
C=CCN1CCC23c4c5ccc(O)c4OC2c2c(c4ccccc4n2C)C[C@@]3(OC)C1C5 (stereo partly specified) [HS531] | 9.38
COc1c(O)cc2c3c1O[C@@]1(C)c4oc5ccccc5c4C[C@@]4(O)C(C2)N(CC2CC2)CCC314 (stereo partly specified) [NSC_0] | 9.66
C=CCN(CC=C)[C@@H](Cc1ccc(O)cc1)C(=O)NC(C)(C)C(=O)NC(C)(C)C(=O)N[C@@H](Cc1ccccc1)C(=O)N[C@@H](CC(C)C)C(=O)O [NSC_107691] (HELM PEPTIDE1{[C=CCN(CC=C)[C@@H](Cc1ccc(O)cc1)C(=O)[*:2]].[Aib].[Aib].F.L}$$$$V2.0) | 6.36
N[C@@H](Cc1ccc(O)cc1)C(=O)N1Cc2ccccc2C[C@H]1C(=O)N[C@@H](Cc1ccccc1)C(=O)N[C@@H](Cc1ccccc1)C(=O)O [TIPP] (HELM PEPTIDE1{Y.[Tic].F.F}$$$$V2.0) | 8.54
